Data on 28 molecules can be found in patent publication US12384776B2, “Compounds and uses thereof” (Foghorn Therapeutics Inc., priority 2019, dated 2025).

Molecules are shown by their SMILES. Some results are limits rather than exact numbers.

For the test, the target named is Nanoluciferase-BRD9 fusion protein (3×FLAG-NLuc-BRD9) in SYO-1 cells (Homo sapiens (Human), UniProt Q9H8M2). Kind of test: SYO1 BRD9 NanoLuc degradation assay. In kind it is cell-based. The procedure:
Procedure: A stable SYO-1 cell line expressing 3×FLAG-NLuc-BRD9 was generated. On day 0 cells were seeded in 30 μL media into each well of 384-well cell culture plates. The seeding density was 8000 cells/well. On day 1, cells were treated with 30 nL DMSO or 30 nL of 3-fold serially DMSO-diluted compounds (10 points in duplicates with 1 μM as final top dose). Subsequently plates were incubated for 6 hours in a standard tissue culture incubator and equilibrated at room temperature for 15 minutes. Nanoluciferase activity was measured by adding 15 μL of freshly prepared Nano-Glo Luciferase Assay Reagent (Promega N1130), shaking the plates for 10 minutes and reading the bioluminescence using an EnVision reader.
Results: The Inhibition % was calculated using the following formula: % Inhibition=100×(LumHC−LumSample)/(LumHC−LumLC). DMSO treated cells are employed as High Control (HC) and 1 μM of a known BRD9 degrader standard treated cells are employed as Low Control (LC).

The mark [1] stands for this setting: SYO-1 cells expressing 3×FLAG-NLuc-BRD9, 6 hours incubation, top dose 1 μM.

Chain of Nanoluciferase-BRD9 fusion protein (3×FLAG-NLuc-BRD9) in SYO-1 cells (Q9H8M2 whole entry, the tested form may be a part): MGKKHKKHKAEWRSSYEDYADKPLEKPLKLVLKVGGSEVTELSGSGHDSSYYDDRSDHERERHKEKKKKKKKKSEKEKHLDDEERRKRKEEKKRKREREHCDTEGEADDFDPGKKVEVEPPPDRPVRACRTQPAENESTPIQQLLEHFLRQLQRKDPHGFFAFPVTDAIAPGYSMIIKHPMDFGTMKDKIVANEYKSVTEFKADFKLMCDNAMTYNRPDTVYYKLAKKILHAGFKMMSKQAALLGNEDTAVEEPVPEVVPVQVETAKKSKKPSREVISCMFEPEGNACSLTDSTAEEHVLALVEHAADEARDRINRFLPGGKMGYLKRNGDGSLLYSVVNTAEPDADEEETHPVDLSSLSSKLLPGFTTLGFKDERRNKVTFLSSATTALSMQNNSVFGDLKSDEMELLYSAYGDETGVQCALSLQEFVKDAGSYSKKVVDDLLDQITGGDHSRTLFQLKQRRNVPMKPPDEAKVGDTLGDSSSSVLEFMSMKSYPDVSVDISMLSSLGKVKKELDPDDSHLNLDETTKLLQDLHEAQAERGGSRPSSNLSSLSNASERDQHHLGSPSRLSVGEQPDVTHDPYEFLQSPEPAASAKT

For orientation: IC50 means the concentration at which inhibition is half-maximal. Low readings indicate inhibition by little substance, high ones a need for much substance. Regarding `CNC(=O)N1CCc2c(-c3cc(OC)c(CN4CC5CN(C(=O)CCOCCOc6ccc7c(c6)C(=O)N(C6CCC(=O)NC6=O)C7=O)CCC54)c(OC)c3)cn(C)c(=O)c2C1` (stereo not shown) [Compound D289], the IC50 under setting [1] fell in the range of 10 to 100 nM.
Regarding `CNC(=O)N1CCc2c(-c3cc(OC)c(CN4CC(S(=O)(=O)NCCCOc5ccc6c(c5)C(=O)N(C5CCC(=O)NC5=O)C6=O)C4)c(OC)c3)cn(C)c(=O)c2C1` (stereo not shown) [Compound D277], the IC50 under setting [1] is 100 to 1000 nM.
On the same count and under the same terms, as for `COc1cc(-c2cn(C)c(=O)c3c2CCN(C(=O)NCCN2CC4(CCN(c5ccc6c(c5)C(=O)N(C5CCC(=O)NC5=O)C6=O)CC4)C2)C3)cc(OC)c1CN(C)C` (stereo not shown) [Compound D191], the figure is 100 to 1000 nM.
In turn, `CNC(=O)N1CCc2c(-c3cc(OC)c(CN4CC(CN5CCC6(CC5)CN(c5ccc7c(c5)C(=O)N(C5CCC(=O)NC5=O)C7=O)C6)C4)c(OC)c3)cn(C)c(=O)c2C1` (stereo not shown) [Compound D109] had a concentration for half-maximal inhibition (IC50) under setting [1] of under 10 nM.
On to `CNC(=O)N1CCc2c(-c3cc(OC)c(CN4CC(S(=O)(=O)NCCOc5cccc6c5C(=O)N(C5CCC(=O)NC5=O)C6=O)C4)c(OC)c3)cn(C)c(=O)c2C1` (stereo not shown) [Compound D282], for which the IC50 under setting [1] was 100 to 1000 nM.
`CNC(=O)N1CCc2c(-c3cc(OC)c(CN(C)CC45CC(C(=O)NCCCCCOc6cccc7c6C(=O)N(C6CCC(=O)NC6=O)C7=O)(C4)C5)c(OC)c3)cn(C)c(=O)c2C1` (stereo not shown) [Compound D288] displayed an IC50 under setting [1] of 100 to 1000 nM.
With `COc1cc(-c2cn(C)c(=O)c3c2CCN(C(=O)NCCCN2CCC4C(C2)CN4c2ccc4c(c2)C(=O)N(C2CCC(=O)NC2=O)C4=O)C3)cc(OC)c1CN(C)C` (stereo not shown) [Compound D231], under setting [1], the IC50 is under 10 nM.
For the setting “SYO-1 cells, 6 hours, Table 6C”, `COc1cc(-c2cn(C)c(=O)c3c2CCN(C(=O)NCC(F)F)C3)cc(OC)c1CN1CCN(CCC2CCN(c3ccc4c(c3)C(=O)N(C3CCC(=O)NC3=O)C4)CC2)CC12CCC2` (stereo not shown) [Compound D333] yielded an IC50 of under 10 nM.
The molecule `CNC(=O)N1CCc2c(-c3cc(OC)c(CN4CCC(C(N5CCC6(CC5)CC(Oc5ccc7c(c5)C(=O)N(C5CCC(=O)NC5=O)C7)C6)C(F)(F)F)CC4)c(OC)c3)cn(C)c(=O)c2C1` (stereo not shown) [Compound D345] had a concentration for half-maximal inhibition (IC50) (SYO-1 cells, 6 hours, Table 6C) of under 10 nM.
In the case of `COc1cc(-c2cn(C)c(=O)c3c2CCN(C(=O)NCCOCCOCCNc2cccc4c2CN(C2CCC(=O)NC2=O)C4=O)C3)cc(OC)c1CN(C)C` (stereo not shown) [Compound D5, 5-[4-[(dimethylamino)methyl]-3,5-dimethoxyphenyl]-N-[2-[2-(2-[[2-(2,6-dioxopiperidin-3-yl)-1-oxo-3H-isoindol-4-yl]amino]ethoxy)ethoxy]ethyl]-7-methyl-8-oxo-3,4-dihydro-1H-2,7-naphthyridine-2-carboxamide formic acid], the concentration for half-maximal inhibition (IC50) (SYO-1 cells, 6 hours, Table 6A) is over 1000 nM.
The molecule `COc1cc(-c2cn(C)c(=O)c3c2CCN(C(=O)NCCCCCCCCNc2ccc4c(c2)C(=O)N(C2CCC(=O)NC2=O)C4=O)C3)cc(OC)c1CN(C)C` (stereo not shown) [Compound D9, 5-(4-((dimethylamino)methyl)-3,5-dimethoxyphenyl)-N-(8-((2-(2,6-dioxopiperidin-3-yl)-1,3-dioxoisoindolin-5-yl)amino)octyl)-7-methyl-8-oxo-3,4,7,8-tetrahydro-2,7-naphthyridine-2 (1H)-carboxamide formic acid] came in with a 50% inhibitory concentration (IC50) (SYO-1 cells, 6 hours, Table 6A) of under 10 nM.
Under setting [1], `CNC(=O)N1CCc2c(-c3cc(OC)c(CN4CCN(CCN5CCN(c6ccc7c(c6)C(=O)N(C6CCC(=O)NC6=O)C7=O)CC5)CC4)c(OC)c3)cn(C)c(=O)c2C1` (stereo not shown) [Compound D139] yielded an IC50 of under 10 nM.
As to `COc1cc(-c2cn(C)c(=O)c3c2CCN(C(=O)NCCN2CCC(C4CCN(c5ccc6c(c5)C(=O)N(C5CCC(=O)NC5=O)C6=O)CC4)C2)C3)cc(OC)c1CN(C)C` (stereo not shown) [Compound D205], under setting [1], the 50% inhibitory concentration (IC50) fell in the range of 10 to 100 nM.
In turn, `CNC(=O)N1CCc2c(-c3cc(OC)c(CN4CCN(CCC5CCN(c6ccc7c(c6)CN(C6CCC(=O)NC6=O)C7=O)CC5)CC45CC5)c(OC)c3)cn(C)c(=O)c2C1` (stereo not shown) [Compound D310] showed a half-maximal inhibitory concentration (IC50) (SYO-1 cells, 6 hours, Table 6C) of under 10 nM.
Turning to `COc1cc(-c2cn(C)c(=O)c3c2CCN(C(=O)CC2CCC24CCN(CCCCN2CCN(c5ccc6c(c5)C(=O)N(C5CCC(=O)NC5=O)C6=O)CC2)CC4)C3)cc(OC)c1CN(C)C` (stereo not shown) [Compound D220], the IC50 under setting [1] was in the range of 100 to 1000 nM.
Turning to `CNC(=O)N1CCc2c(-c3cc(OC)c(CN4CCC(CCN(C)C5CCN(c6ccc7c(c6)C(=O)N(C6CCC(=O)NC6=O)C7=O)CC5)CC4)c(OC)c3)cn(C)c(=O)c2C1` (stereo not shown) [Compound D200], under setting [1], the IC50 was under 10 nM.
In turn, `COc1cc(-c2cn(C)c(=O)c3c2CCN(C(=O)NCC(F)F)C3)cc(OC)c1CN1CCC(CN2CCC3(CC2)CN(c2ccc4c(c2)C(=O)N(C2CCC(=O)NC2=O)C4)C3)CC1` (stereo not shown) [Compound D336] displayed an IC50 (SYO-1 cells, 6 hours, Table 6C) of under 10 nM.
Under setting [1], `COc1cc(-c2cn(C)c(=O)c3c2CCN(C(=O)NCC2CC4(C2)CN(c2ccc5c(c2)C(=O)N(C2CCC(=O)NC2=O)C5=O)C4)C3)cc(OC)c1CN(C)C` (stereo not shown) [Compound D115] came in with an IC50 of under 10 nM.
`COC(=O)N1CCc2c(-c3cc(OC)c(CN4CCC(CCN5CCN(c6ccc7c(c6)C(=O)N(C6CCC(=O)NC6=O)C7=O)CC5)CC4)c(OC)c3)cn(C)c(=O)c2C1` (stereo not shown) [Compound D64] had a half-inhibitory concentration (IC50) under setting [1] of under 10 nM.
For the molecule `COc1cc(-c2cn(C)c(=O)c3c2CCN(C(=O)NC2CC4CC2CN4CCOc2ccc4c(c2)C(=O)N(C2CCC(=O)NC2=O)C4=O)C3)cc(OC)c1CN(C)C` (stereo not shown) [Compound D274], the IC50 under setting [1] lay within 100 to 1000 nM.
Take `COc1cc(-c2cn(C)c(=O)c3c2CCN(C(=O)NCC2CC24CCN(CCCCN2CCN(c5ccc6c(c5)C(=O)N(C5CCC(=O)NC5=O)C6=O)CC2)CC4)C3)cc(OC)c1CN(C)C` (stereo not shown) [Compound D240]: under setting [1], the IC50 lay in the range of 100 to 1000 nM.
Under “SYO-1 cells, 6 hours, Table 6C”, `[2H]C([2H])([2H])NC(=O)N1CCc2c(-c3cc(OC)c(CN4CCN(CCC5CCN(c6ccc7c(c6)C(=O)N(C6CCC(=O)NC6=O)C7)CC5)CC4)c(OC)c3)cn(C)c(=O)c2C1` (stereo not shown) [Compound D341] returned an IC50 of under 10 nM.
On to `COc1cc(-c2cn(C)c(=O)c3c2CN(C)CC3)cc(OC)c1CN1CC(CN2CCC3(CC2)CN(c2ccc4c(c2)C(=O)N(C2CCC(=O)NC2=O)C4)C3)C1` (stereo not shown) [Compound D293], for which the DC50 (SYO-1 cells expressing 3×FLAG-NLuc-BRD9, 6 hours incubation, top dose 1 μM, read-out: SYO1 BRD9-NanoLuc degradation IC50) was 100 to 1000 nM.
Where the note is “SYO-1 cells, 6 hours, Table 6C”, `CNC(=O)N1CCc2c(-c3cc(OC)c(CN4CCC(CN5CCC6(CC5)CC(Oc5ccc7c(c5)C(=O)N(C5CCC(=O)NC5=O)C7=O)C6)CC4)c(OC)c3)cn(C(F)F)c(=O)c2C1` (stereo not shown) [Compound D338] came in with a half-maximal inhibitory concentration (IC50) of under 10 nM.
`COc1cc(-c2cn(C)c(=O)c3c2CCN(C(=O)NCCN(C)CCNC(=O)COc2cccc4c2C(=O)N(C2CCC(=O)NC2=O)C4=O)C3)cc(OC)c1CN(C)C` (stereo not shown) [Compound D8, N-(2-[[2-(5-[4-[(dimethylamino)methyl]-3,5-dimethoxyphenyl]-7-methyl-8-oxo-3,4-dihydro-1H-2,7-naphthyridine-2-carbonylamino)ethyl](methyl)amino]ethyl)-2-[[2-(2,6-dioxopiperidin-3-yl)-1,3-dioxoisoindol-4-yl]oxy]acetamide formic acid] registered a concentration for half-maximal inhibition (IC50) (SYO-1 cells, 6 hours, Table 6A) of over 100 nM.
Under setting [1], `COc1cc(-c2cn(C)c(=O)c3c2CCN(C(=O)NCC2CC4(C2)CN(CCCCN2CCN(c5ccc6c(c5)C(=O)N(C5CCC(=O)NC5=O)C6=O)CC2)C4)C3)cc(OC)c1CN(C)C` (stereo not shown) [Compound D219] yielded a concentration for half-maximal inhibition (IC50) of 100 to 1000 nM.
In turn, `CNC(=O)N1CCc2c(-c3cc(OC)c(CN4CCC5(CC4)CC(N4CCN(c6ccc7c(c6)C(=O)N(C6CCC(=O)NC6=O)C7=O)CC4)C5)c(OC)c3)cn(C)c(=O)c2C1` (stereo not shown) [Compound D255] gave an IC50 under setting [1] of under 10 nM.
On the same count and under the same terms, as for `CNC(=O)N1CCc2c(c(-c3cc(OC)c(CN4CC5CN(C(=O)CCOCCOc6ccc7c(c6)C(=O)N(C6CCC(=O)NC6=O)C7=O)CCC54)c(OC)c3)cn(C)c2=O)C1` (stereo not shown) [Compound D295], the figure is 100 to 1000 nM.
